According to PMC12442245, “Activity Analysis of the P2X Receptor Antagonist PPADS against Signal Transducer and Activator of Transcription Proteins” (Chembiochem, 2025):

Molecular target: T1, STAT5b (Homo sapiens, UniProt P51692)
T1 sequence (P51692 1-787): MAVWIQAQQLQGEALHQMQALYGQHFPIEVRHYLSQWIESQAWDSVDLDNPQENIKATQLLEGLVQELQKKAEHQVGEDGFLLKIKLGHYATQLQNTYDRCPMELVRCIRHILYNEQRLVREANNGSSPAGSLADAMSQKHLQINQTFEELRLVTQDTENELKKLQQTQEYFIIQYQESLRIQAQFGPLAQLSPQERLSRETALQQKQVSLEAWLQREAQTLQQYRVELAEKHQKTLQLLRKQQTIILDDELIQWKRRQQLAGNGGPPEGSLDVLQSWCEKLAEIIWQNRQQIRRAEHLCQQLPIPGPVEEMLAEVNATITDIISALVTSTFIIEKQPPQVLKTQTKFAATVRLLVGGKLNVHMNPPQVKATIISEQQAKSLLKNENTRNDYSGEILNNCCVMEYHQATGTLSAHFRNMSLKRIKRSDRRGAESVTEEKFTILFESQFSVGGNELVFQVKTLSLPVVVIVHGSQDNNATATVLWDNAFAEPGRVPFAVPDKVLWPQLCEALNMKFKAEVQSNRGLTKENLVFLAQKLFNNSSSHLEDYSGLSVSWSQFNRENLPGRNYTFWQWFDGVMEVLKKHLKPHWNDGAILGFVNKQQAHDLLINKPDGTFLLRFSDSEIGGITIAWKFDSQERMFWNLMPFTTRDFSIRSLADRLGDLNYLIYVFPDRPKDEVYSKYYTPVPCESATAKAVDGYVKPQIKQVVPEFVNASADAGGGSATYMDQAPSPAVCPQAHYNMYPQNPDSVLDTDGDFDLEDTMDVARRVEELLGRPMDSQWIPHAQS
Assay: HTRF assay, STAT5b
Format: binding
Settings: STAT5b 80 nM, without reducing agent, 1 h
Description: The azo dyes PPADS and iso‐PPADS have a deep red color in aqueous solution. […] In order to exclude this possibility, we established homogeneous time‐resolved fluorescence resonance energy transfer (HTRF) assays to confirm the degree of binding between STAT4, STAT5a, and STAT5b and the respective 5‐carboxyfluorescein‐labeled binding peptides used in the FP assay. In addition, an HTRF assay was established for STAT3, one of the STAT proteins targeted to a lesser extent in FP assays, as a specificity control (Figure 1B,C). The STAT protein constructs each contain a 6x‐His‐tag.^[ [15], [16], [17], [22] ^] A Tb^3+‐cryptate fused to an anti‐6x‐His antibody was chosen as the long‐lived fluorescent donor, while the carboxyfluorescein linked to the respective STAT‐binding peptides served as the acceptor (Figure 2A). Emission was measured with a time delay of 60 μs after excitation, allowing any initial compound fluorescence to decay beforehand. […]
Screening of chemical libraries comprising approximately 5000 known bioactive compounds in fluorescence polarization-based assays against phosphorylation-dependent protein-protein interaction domains, including STAT proteins, has been described.[1] […]
Fluorescence polarization assays
Competitive fluorescence polarization (FP) assays for STAT1,[2] […] Briefly, peptide binding to proteins was analyzed using the following carboxyfluorescein (CF) -labelled pepti des at a concentration of 10 nM: STAT1: 5-CF-GpYDKPHVL-OH, STAT3: 5-CF-GpYLPQTV -NH2, STAT4: 5-CF-GpYLPQNID-OH, STAT5a and STAT5b: 5-CF-GpYLVLDKW-OH, STAT6: 5- […]
CFGp[…]-OH. […] FP was measured using an Infinite F500 plate reader (Tecan) and measurements were converted into percent inhibition according to the binding curve equation. Curves were plotted and best fits calculated using OriginPro […]
Homogenous time-resolved fluorescence (HTRF) assays for STAT3, STAT4, STAT5a and STAT5b were carried out using Cisbio Monoclonal Antibody Anti-6His-Tb Gold as the fluorescence donor (Perkin Elmer) and the corresponding CF-labelled binding peptide as the acceptor. […] The average reading from 3 wells was obtained. […]

Structure (SMILES)	IC50 [µM]
Cc1nc(/N=N/c2cc(S(=O)(=O)O)ccc2S(=O)(=O)O)c(COP(=O)(O)O)c(C=O)c1O [iso‐PPADS]	0.8 ± 0.1
Cc1nc(/N=N/c2ccc(S(=O)(=O)O)cc2S(=O)(=O)O)c(COP(=O)(O)O)c(C=O)c1O [PPADS, pyridoxalphosphate‐6‐azophenyl‐2',4'‐disulfonic acid]	1.22 ± 0.27
